Laboratory results published in patent US5457092A, “Methods of promoting bone growth in mammals comprising administration of modified parathyroid hormone” (Gesellschaft fur Biotechnologische Forschung mbH (GBF), priority 1987, dated 1995).

How the values were obtained:
[1] = tested on: rat epiphysial cartilage cell cultures; test: CK specific activity in rat epiphysial cartilage cell cultures; assay type: cell-based; conditions: for CK specific activity: 100 nM, control 225 ± 32
Description: To compare the stimulations seen in osteoblast-like cells (FIGS. 10 and 11) with PTH effects in a cartilage system, cultures of rat epiphysial cartilage cells were incubated with full-length PTH and selected PTH fragments (Table 3). CK activity was stimulated by bPTH(1-84) and hPTH(28-48) but not by hPTH(25-39) or hPTH(34-47). […] The comparison between the complete molecule and the mid-regional fragment hPTH (28-48) is similar to but not identical with the results obtained for calvaria cell cultures (FIGS. 10 and 11) and in the chick sternum chondrocyte system; cf. Biochem. J., 252 (1988) 263-268 (11; Farndale et al.),

[2] = tested on: rat epiphysial cartilage cell cultures; test: DNA synthesis in rat epiphysial cartilage cell cultures; assay type: cell-based; conditions: for [^3 H]Thymidine incorporation into DNA: 100 nM, control 350 ± 25
[3] = tested on: ROS 17/2.8 osteoblast-like cells; test: CK specific activity in ROS 17/2.8 osteoblast-like cells; assay type: cell-based, rat; conditions: control 698 ± 70 nmol/min per mg of protein
[4] = tested on: ROS 17/2.8 osteoblast-like cells; test: DNA synthesis in ROS 17/2.8 osteoblast-like cells; assay type: cell-based, rat; conditions: control 392 ± 58 c.p.m./μg of DNA
[5] = tested on: rat organs (epiphysis, diaphysis, kidney); test: CK specific activity in rat organs after i.p. injection; assay type: in vivo; conditions: for effect on CK activity in rat organs (in words): 0.875 μg/rat; for CK specific activity, Kidney / CK specific activity, Epiphysis / CK specific activity, Diaphysis: rat; for CK specific activity, Kidney: control 1.43 ± 0.20; for CK specific activity, Epiphysis: control 15.0 ± 2.2; for CK specific activity, Diaphysis: control 26.0 ± 3.,9
Description: FIG. 13 is a graph showing the time-dependent stimulation by hPTH (28-48) of CK specific activity in rat organs. Female rats (20-25 days old) were injected i.p. with hPTH-(28-48) (1.25 μg/rat). Experimental details are as described for FIG. 10. (a) Diaphysis, (b) epiphysis, (c) kidney. *P<0.05, **P<0.01 versus controls.
FIG. 14 is a graph showing the dose-dependent stimulation of CK specific activity by hPTH (1-34) in rat organs. Female rats (20-25 days old) were injected i.p. with hPTH-(1-34). At 4 h later, rats were killed and extracts were prepared and assayed as described below. Experimental details are as described for FIG. 10 (a) Diaphysis, (b) epiphysis, (c) kidney. *P<0.05, ** P<0.01 versus controls.
FIG. 15 is a graph showing the dose-dependent stimulation of CK specific activity by hPTH (28-48) in rat organs. Female rats (20-25 days old) were injected i.p. with hPTH-(28-48). Experimental details are as described for FIG. 13 (a) Diaphysis, (b) epiphysis, (c) kidney. *P<0.05, **P<0.01 versus controls.
FIG. 16 is a graph showing the […] stimulation by bPTH (1-84) of CK specific activity in rat organs. Female rats (20-25 days old) were injected i.p. with bPTH-(1-84) (3.5 μg/rat). At the times indicated, the rats were killed and the diaphyses (a) and epiphyses (b) of long bones as well as the kidneys (c) were collected and homogenized. Extracts were prepared and assayed as described below. Results are means ±S.E.M for π=5. Statistical significance of differences between treated and control groups by Student's T test: *P<0.05; **P<0.01. Note that the activity scales differ for different organs.
Kidneys, tibia and femur were excised; the epiphyses or diaphyses of the long bones were collected and washed thoroughly with cold 0.9% NaCl. The bones were split open lengthwise and the marrow was scraped out. Organs were homogenized in ice-cold buffer containing 50 mM-Tris/HCl (pH 6.8), 5 mH-magnesium acetate. 2.5 mM-dithiothreitol, 0.4 mM-EDTA and 250 mM-sucrose using a Polytron homogenizer in 10 s bursts with intervening cooling periods. Supernatant extracts were obtained by centrifugation at 12000 g for 5 min at 4° C. CK activity was measured at 30° C. in a Gilford 250 automatic recording spectrophotometer at 340 nm using a coupled assay for ATP, in 0.5 ml of incubation mixture containing 50 mM-imidazole acetate buffer (pH 6.7), 25 mM-phosphocreatine, 20 mM-N-acetylcysteine, 20 mM-D-glucose, 10 mM-magnesium acetate, 5 mM-EDTA, 2 mM-ADP, 2 mM-NAD+, 2 mM-dithiothreitol, 50 μM-diadenosine pentaphosphate (adenylate kinase inhibitor), 5 μg of bovine serum albumin. 1.2 units of glucose-6-phosphate dehydrogenase and 0.8 units of hexokinase. Protein was determined by the Coomassie Brilliant Blue dye-binding method, with bovine serum albumin as the standard.

[6] = tested on: rat organs (epiphysis, diaphysis, kidney); test: [3H]thymidine incorporation into DNA in rat organs after i.p. injection; assay type: in vivo; conditions: 22-24 h after injection
Description: FIG. 12 is a graph showing the time course of stimulation by hPTH (1-34) of DNA synthesis in rat organs. Female rats (20-25 days old) were injected i.p. with hPTH-(1-34) (2 μg/rat). At 2 h before the times indicated, the rats were killed and organs were removed and incubated in 2 ml of Dulbecco's modified Eagle's medium containing 5 μl of [^3 H]thymidine. (Amersham: 5 Ci/mmol) for 2 h, then washed with medium and homogenized in deionized distilled water. The total uptake of [^3 H]thymidine and acid-insoluble radioactivity was measured, as well as DNA content, as described below. , Diaphysis; O, epiphysis; Δ; kidney. P<0.01 versus controls.
The pieces were then incubated for 2 h more (the time indicated in FIG. 12) with [^3 H]thymidine (5 μci/ml; 5 Ci/mmol) at 37° C. in Dulbecco's modified Eagle's medium under an atmosphere Of […] /95% air. Total [^3 H]thymidine uptake and incorporation into trichloroacetic acid-insoluble material was measured as described in Biochem. J., 214 (1983) 293-298 (16; Somjen et al.). At no time including the 22 24 h pulse, was there any significant change in the total uptake of [^3 H]thymidine which reflects changes in the thymidine pool which, in turn, could account for changes in incorporation. DNA was determined by the Burton method; cf. Biochem. J., 62 (1956) 315-323 (17; Burton).
To corroborate that under the circumstances of these experiments the increase in CK specific activity in bone is indeed a valid marker of cell proliferation, changes in DNA synthesis were measured by [^3 H]thymidine incorporation; cf. Biochem. J., 272 (1990) 781-785 (18; Somjen et al.). The earliest time at which PTH increased [^3 H]thymidine incorporation was determined by in-jecting rats with an optimal dose of 2 μp of PTH(1-34)/rat, equivalent to 13 nM (FIG. 14) and measuring 2 h pulses of [^3 H)thymidine incorporation into DNA (FIG. 12).

[7] = tested on: rat organs (epiphysis, diaphysis, kidney); test: as above; assay type: in vivo; conditions: rat; for [^3 H]thymidine incorporation into DNA, Kidney: control 9.0 ± 2.1; for [^3 H]thymidine incorporation into DNA, Diaphysis: control 24.1 ± 3.8; for [^3 H]thymidine incorporation into DNA, Epiphysis: control 25.8 ± 5.2
[8] = 4 h after injection of 0.875 μg
[9] = 22-24 h after injection of 0.875 μg
[10] = 22-24 h after injection of 1.25 μg
[11] = 22-24 h after injection of 0.876 μg

hPTH(34-47): PTH fragment 34-47, human source; comparative example (FVALGAPLAPRDAG; Parathyroid hormone; UniProt P01270 65-78, looked up, fragment) [reference compound]
CK specific activity [1]: 236 ± 32 nmol/min per mg of protein | stimulation of DNA synthesis (in words) [2]: stimulated by all molecules tested except | [^3 H]Thymidine incorporation into DNA [2]: 356 ± 75 c.p.m./plate | CK specific activity, effect of fragment (experimental value/control value) ([3]; 500 nM): 1.07 ± 0.10 | [^3 H]Thymidine incorporation, effect of fragment (experimental value/control value) ([4]; 500 nM): 1.05 ± 0.11 | effect on CK activity in rat organs (in words) ([5]; equivalent to 14 nM): no effect | CK specific activity, Kidney [5, 8]: 1.64 ± 0.32 μmol/min per mg of protein | CK specific activity, Epiphysis [5, 8]: 16.7 ± 2.5 μmol/min per mg of protein | CK specific activity, Diaphysis [5, 8]: 24.9 ± 4.8 μmol/min per mg of protein | potency in stimulating [^3 H]thymidine incorporation in diaphysis and epiphysis (in words) [6]: inactive | [^3 H]thymidine incorporation into DNA, Kidney [7, 9]: 9.0 ± 1.9 c.p.m./pg of DNA | [^3 H]thymidine incorporation into DNA, Diaphysis [7, 9]: 28.6 ± 4.2 c.p.m./pg of DNA | [^3 H]thymidine incorporation into DNA, Epiphysis [7, 9]: 28.0 ± 7.2 c.p.m./pg of DNA

hPTH(28-48): mid-regional PTH fragment 28-48, human source (LQDVHNFVALGAPLAPRDAGS; Parathyroid hormone; UniProt P01270 59-79, looked up, fragment)
stimulation of CK activity (in words) [1]: stimulated | CK specific activity [1]: 346 ± 36 nmol/min per mg of protein | [^3 H]Thymidine incorporation into DNA [2]: 731 ± 44 c.p.m./plate | CK specific activity, effect of fragment (experimental value/control value) ([3]; 400 nM): 1.56 ± 0.08 | [^3 H]Thymidine incorporation, effect of fragment (experimental value/control value) ([4]; 400 nM): 1.56 ± 0.12 | time of maximal increase of CK activity, diaphysis ([5]; 1.25 μg/rat i.p.): 1 h | time of maximal increase of CK activity, epiphysis ([5]; 1.25 μg/rat i.p.): 4 h | effect on CK activity after injection (in words) ([5]; 1.25 μg/rat i.p., equivalent to 14 nM): increased CK activity | CK activity in diaphysis over time (in words) ([5]; 1.25 μg/rat i.p., 1, 4 and 24 h): significantly increased at all three times measured | CK activity in epiphysis at 1 h (in words) ([5]; 1.25 μg/rat i.p., 1 h): significant increase | CK activity in epiphysis at 24 h (in words) ([5]; 1.25 μg/rat i.p., 24 h): no significant increase | CK specific activity in kidney at 24 h (in words) ([5]; 1.25 μg/rat i.p., 24 h): declined to close to the constitutive activity | stimulation of CK specific activity in diaphysis at the dose of maximum effect ([5]; 1.25 μg/rat, 4 h later): approx. 3 fold | dose of maximal effect on CK specific activity ([5]; i.p., 4 h later): 1.25 μg/rat | dose giving a significant increase in CK specific activity in all organs ([5]; i.p., 4 h later, diaphysis, epiphysis, kidney): 0.15 μg/rat | CK specific activity, Kidney ([5]; 4 h after injection of 1.25 μg): 2.26 ± 0.34 μmol/min per mg of protein | CK specific activity, Epiphysis ([5]; 4 h after injection of 1.25 μg): 20.9 ± 3.0 μmol/min per mg of protein | CK specific activity, Diaphysis ([5]; 4 h after injection of 1.25 μg): 37.2 ± 3.3 μmol/min per mg of protein | potency in stimulating [^3 H]thymidine incorporation in diaphysis and epiphysis (in words) [6]: as potent as bPTH(1-84) | [^3 H]thymidine incorporation into DNA, Kidney [7, 10]: 11.2 ± 2.7 c.p.m./pg of DNA | [^3 H]thymidine incorporation into DNA, Diaphysis [7, 10]: 39.1 ± 8.1 c.p.m./pg of DNA | [^3 H]thymidine incorporation into DNA, Epiphysis [7, 10]: 46.7 ± 7.4 c.p.m./pg of DNA

hPTH(25-39): PTH fragment 25-39, human source (RKKLQDVHNFVALGA; Parathyroid hormone; UniProt P01270 56-70, looked up, fragment)
CK specific activity [1]: 268 ± 36 nmol/min per mg of protein | [^3 H]Thymidine incorporation into DNA [2]: 544 ± 44 c.p.m./plate | CK specific activity, effect of fragment (experimental value/control value) ([3]; 200 nM): 1.71 ± 0.08 | [^3 H]Thymidine incorporation, effect of fragment (experimental value/control value) ([4]; 200 nM): 1.36 ± 0.08 | effect on CK activity in rat organs (in words) ([5]; equivalent to 14 nM): significant increase | CK specific activity, Kidney [5, 8]: 3.22 ± 0.78 μmol/min per mg of protein | CK specific activity, Epiphysis [5, 8]: 24.0 ± 3.2 μmol/min per mg of protein | CK specific activity, Diaphysis [5, 8]: 41.8 ± 4.9 μmol/min per mg of protein | potency in stimulating [^3 H]thymidine incorporation in diaphysis and epiphysis (in words) [6]: as potent as hPTH(28-48) | [^3 H]thymidine incorporation into DNA, Kidney [7, 11]: 11.2 ± 1.9 c.p.m./pg of DNA | [^3 H]thymidine incorporation into DNA, Diaphysis [7, 11]: 44.8 ± 4.5 c.p.m./pg of DNA | [^3 H]thymidine incorporation into DNA, Epiphysis [7, 11]: 48.4 ± 6.6 c.p.m./pg of DNA
